Measured values reported in patent publication US6903130B1, “Pyrrolidineacetamide derivative alone or in combination for treatment of cns disorders” (UCB S.A., priority 1999, dated 2005).
Marks after values point to notes of the source that are not given here.

Assays:
epilepsy = conditions: in vivo; cited from earlier work
[1] = tested on: diabetic rats (streptozocin-induced diabetic neuropathy); test: Randall and Selitto test, mechanical hyperalgesia in streptozotocin diabetic rats; format: in vivo, rat
Excerpt: In order to study the activity of levetiracetam with respect to chronic or neuropathic pain, the Applicant carried out a series of experiments based on the Randall test “A method for measurement of analgesic activity on inflamed tissue; Arch. Int. pharmacodyn., 1957, CXI, No4. P 409-419”. By virtue of this protocol, it was possible to determine the ability of levetiracetam to correct hyperalgesia secondary to induction of a neuropathic problem of metabolic origin in a rodent.
The diabetic neuropathy thereby induced allowed the correction of the hyperalgesia caused by the use of levetiracetam to be measured.
The animals used for these experiments were male Sprague-Dawley rats (Charles River, France), weighing 250-280 grams (g), which had undergone induction of diabetes one week after receipt. Male Sprague-Dawley rats (200-220 g) received one interperitoneal injection of streptozocin (75 mg/kg, i.p.) (Zanosar, Upjohn, France) dissolved in distilled water. Hyperglycaemia was confirmed one week after induction by determining the quantity of blood glucose (caudal puncture) using a Dextrostix reactive strip (Ames) read using a calorimeter (Ames Division, Miles Laboratoires, France). Animals with more than 14 millimoles (mM) were considered to be diabetic. The pain thresholds were determined 3 weeks after induction of diabetes.
This model was used in accordance with the description in COURTEIX et al., “Streptozocin-induced diabetic rats. Behavioural evidence for a model of chronic pain” Pain (1993), vol. 53, p81-88. The study was performed using the following compounds: • […]: (Laboratories UCB), dissolved in distilled water. • CARBAMAZEPINE: (Sigma), dissolved in hydroxy propel methylcellulose.
As has already been mentioned above, the test explained below was performed to stimulate a reaction in the animal with a mechanical nociceptive stimulus to a hind paw. An increasing pressure was applied using an analgesia meter (Ugo Basile, type 7200), until a cry was emitted which was considered to be the pain threshold, expressed in grams.
After determining the base thresholds, the animals received the study treatments (vehicle, levetiracetam, 17, 54, 95.2 and 120 mg/kg, carbamazepine, 10 and 30 mg/kg) administered intraperitoneally (i.p.) using the equal block method to avoid any chronobiological influence. The effects of different treatments were thus determined during the same time period. The reaction thresholds were measured 15, 30, 45, 60, 90, 120 and 180 minutes (min) after administration. All of the experiments were performed blind with 8 different animals per treatment.
The results are expressed as means±standard error of mean (S.E.M.).
The dose which could overcome 50% of the hyperalgesia induced by diabetes was calculated as the “anti-hyperalgesic dose effective 50”.
Statistical comparison was carried out by means of a two-way analysis of variance followed by Fischer's PLSD multiple comparison test to analyze the temporal effect.

sound-sensitive mice = test: Rotarod test in sound-sensitive mice; conditions: combined treatment with 5.5 mg/kg levetiracetam
[2] = Plasma and brain levels after oral dosing in sound-sensitive mice; conditions: alone or in combination with levetiracetam
Protocol: Male genetically sound-sensitive mice (17-30 g; N=10), derived from a DBA strain originally selected by Dr Lehmann of the Laboratory of Acoustic Physiology (Paris) and bred in the UCB Pharma Sector husbandry unit since 1978, were submitted to the induction of audiogenic seizures. Levetiracetam (5.4 mg/kg) and sodium valproate (166.2 mg/kg) were administered orally, alone or in combination, 60 minutes before the induction of audiogenic seizures. For testing audiogenic seizure, the mice were placed in the cages, one mouse per cage, in the sound-attenuated chamber. After a period of habituation of 30 seconds, the acoustic stimulus (90 dB, 10-20 kHz) was delivered for 30 seconds via the loud speakers. During this interval, the mice were observed and the presence of the 3 phases of the seizure activity, namely wild running, clonic and tonic convulsions, was recorded.
In all animals, blood samples were collected immediately after the seizure test (I h after dosing) by cardiac puncture under light carbon dioxide anesthesia, into heparinised microtubes. […] Levetiracetam was measured in plasma and brain samples by validated gas chromatography assay with mass detection. With sodium valproate, fluorescence polarization immunoassays were used.
The mean value plus standard deviation was calculated for plasma and brain concentrations of valproate and levetiracetam, and for the brain/plasma ratio. […]

SMILES: CC[C@H](C(N)=O)N1CCCC1=O [(R)-(−)-α-ethyl-2-oxo-1-pyrrolidine-acetamide]
- activity in the treatment of epilepsy (in words) (epilepsy): completely devoid of activity

SMILES: NC(=O)N1c2ccccc2C=Cc2ccccc21 [Carbamazepine, reference compound]
- vocalization threshold ([1]; carbamazepine 10 mg/kg i.p. group, before diabetes (baseline), mean (SEM)): 300.9 (12.31) g
- vocalization threshold ([1]; carbamazepine 10 mg/kg i.p., 15 min after injection): 217.5 g
- vocalization threshold ([1]; carbamazepine 10 mg/kg i.p., 30 min after injection): 333.8 (14.66)* g
- vocalization threshold ([1]; carbamazepine 10 mg/kg i.p., 45 min after injection): 273.8 g
- vocalization threshold ([1]; carbamazepine 10 mg/kg i.p., 60 min after injection): 206.3 (10.51)* g
- vocalization threshold ([1]; carbamazepine 10 mg/kg i.p., 90 min after injection): 187.5 (8.02) g
- vocalization threshold ([1]; carbamazepine 10 mg/kg i.p., 120 min after injection): 174.4 (3.95) g
- vocalization threshold ([1]; carbamazepine 10 mg/kg i.p., 180 min after injection): 174.4 (3.95) g
- vocalization threshold ([1]; carbamazepine 10 mg/kg i.p., after diabetes, 0 min (base threshold)): 170.6 (5.26) g
- vocalization threshold ([1]; carbamazepine 30 mg/kg i.p. group, before diabetes (baseline), mean (SEM)): 280.3 (9.92) g
- vocalization threshold ([1]; carbamazepine 30 mg/kg i.p., 15 min after injection): 450.0 g
- vocalization threshold ([1]; carbamazepine 30 mg/kg i.p., 30 min after injection): 425.6 (39.98)* g
- vocalization threshold ([1]; carbamazepine 30 mg/kg i.p., 45 min after injection): 311.3 g
- vocalization threshold ([1]; carbamazepine 30 mg/kg i.p., 60 min after injection): 230.6 (24.86)* g
- vocalization threshold ([1]; carbamazepine 30 mg/kg i.p., 90 min after injection): 196.9 g
- vocalization threshold ([1]; carbamazepine 30 mg/kg i.p., 120 min after injection): 174.4 (7.99) g
- vocalization threshold ([1]; carbamazepine 30 mg/kg i.p., 180 min after injection): 170.6 (6.30) g
- vocalization threshold ([1]; carbamazepine 30 mg/kg i.p., after diabetes, 0 min (base threshold)): 152.8 (8.01) g
- spontaneous motor activity (not quantified) ([1]; carbamazepine 30 mg/kg i.p., delayed effect, 30 min after injection): reduction in spontaneous motor activity
- Effect on diabetic hyperalgesia (in words) ([1]; i.p., diabetic rats): complete reversal of diabetic hyperalgesia for the 2 doses used

SMILES: CNC1=Nc2ccc(Cl)cc2C(c2ccccc2)=[N+]([O-])C1 [chlordiazepoxide]
- impairment of rotarod performance under combined treatment (in words) (sound-sensitive mice): not affected

SMILES: O=C1CN=C(c2ccccc2Cl)c2cc([N+](=O)[O-])ccc2N1 [clonazepam]
- impairment of rotarod performance under combined treatment (in words) (sound-sensitive mice): not affected

SMILES: CCC1(c2ccccc2)C(=O)NC(=O)NC1=O [phenobarbital, reference compound]
- plasma concentrations and brain/plasma ratio alone vs in combination with levetiracetam (in words) [2]: unchanged
- impairment of rotarod performance under combined treatment (in words) (sound-sensitive mice): not affected
